Laboratory results as given in patent US8791145B2, “Agricultural formulations with acyl morpholines and polar aprotic co-solvents” (Akzo Nobel Chemicals International B.V., priority 2010, dated 2014).

How the values were obtained:
[1] = Solubility in acyl morpholines; format: physicochemical; conditions: 23° C.
Description: Various agriculturally active ingredients were dissolved in N-formyl morpholine, N-acetyl morpholine and N-propionyl morpholine in order to evaluate the solubility of the active ingredients in the solvents. This was done by adding the active ingredient to a beaker and thereafter adding the solvent until a clear solution was obtained. The solutions were continually stirred at a temperature of 23° C. during the experiments. When everything had been dissolved, the beakers were left without stirring for 24 h to see if the solution was stable (i.e. no crystallization).

[2] = Dilution of Imidacloprid formulation in water, ocular inspection; format: physicochemical; design: key: +: easily dissolved; −: permanent crystals; NS: Non soluble; conditions: 200 g/l diluted to 0.4 g/l
Description: Formulations containing 200 g/l of Imidacloprid was formulated together with 40 g/l of an alcohol ethoxylate (2-propylheptanol ethoxylated with 8 moles of EO per mole of alcohol) and diluted to a final volume of one liter with each one of the solvents N-formyl morpholine, N-acetyl morpholine and N-propionyl morpholine along with a co-solvent. The co-solvents used were dimethylsulfoxide (DMSO), propylene carbonate (PC), dimethylformamide (DMF) and ethyl lactate (EL). Ethyl lactate is a protic solvent and is included in the experiment for comparison. The amount of each co-solvent, in % by weight of the total weight of morpholine and co-solvent, is seen in table 2. The solutions was diluted in water to an end concentration of imidacloprid of 0.4 g/l and the dilution was judged by ocular inspection with the naked eye, and in the table below, the following is used: • +: easily dissolved, • −: permanent crystals. • NS: Non soluble

[3] = Literature value from Adjuvant Newsletter; cited from earlier work

SMILES: O=[N+]([O-])NC1=NCCN1Cc1ccc(Cl)nc1 [Imidacloprid]
- Dissolution of active ingredient into N-acetyl morpholine (NAM) ([1]; NAM): 26 grams of active ingredient in 100 g solvent
- Dissolution of active ingredient into N-formyl morpholine (NFM) ([1]; NFM): 30 grams of active ingredient in 100 g solvent
- Dissolution of active ingredient into N-propionyl morpholine (NPM) ([1]; NPM): 19 grams of active ingredient in 100 g solvent
- Crystallization upon dilution in water ([2]; NAM, 0% DMF): −
- Crystallization upon dilution in water ([2]; NAM, 0% DMSO): −
- Crystallization upon dilution in water ([2]; NAM, 0% EL): −
- Crystallization upon dilution in water ([2]; NAM, 0% PC): −
- Crystallization upon dilution in water ([2]; NAM, 5% DMF): −
- Crystallization upon dilution in water ([2]; NAM, 5% DMSO): −
- Crystallization upon dilution in water ([2]; NAM, 5% EL): −
- Crystallization upon dilution in water ([2]; NAM, 5% PC): −
- Crystallization upon dilution in water ([2]; NAM, 10% DMF): −
- Crystallization upon dilution in water ([2]; NAM, 10% DMSO): −
- Crystallization upon dilution in water ([2]; NAM, 10% EL): NS
- Crystallization upon dilution in water ([2]; NAM, 10% PC): −
- Crystallization upon dilution in water ([2]; NAM, 15% DMF): −
- Crystallization upon dilution in water ([2]; NAM, 15% DMSO): +
- Crystallization upon dilution in water ([2]; NAM, 15% EL): NS
- Crystallization upon dilution in water ([2]; NAM, 15% PC): −
- Crystallization upon dilution in water ([2]; NAM, 20% DMF): +
- Crystallization upon dilution in water ([2]; NAM, 20% DMSO): +
- Crystallization upon dilution in water ([2]; NAM, 20% EL): NS
- Crystallization upon dilution in water ([2]; NAM, 20% PC): NS
- Crystallization upon dilution in water ([2]; NAM, 25% DMF): +
- Crystallization upon dilution in water ([2]; NAM, 25% DMSO): +
- Crystallization upon dilution in water ([2]; NAM, 25% EL): NS
- Crystallization upon dilution in water ([2]; NAM, 25% PC): NS
- Crystallization upon dilution in water ([2]; NAM, 30% DMF): +
- Crystallization upon dilution in water ([2]; NAM, 30% DMSO): +
- Crystallization upon dilution in water ([2]; NAM, 30% EL): NS
- Crystallization upon dilution in water ([2]; NAM, 30% PC): NS
- Crystallization upon dilution in water ([2]; NAM, 50% DMF): +
- Crystallization upon dilution in water ([2]; NAM, 50% DMSO): +
- Crystallization upon dilution in water ([2]; NAM, 50% EL): NS
- Crystallization upon dilution in water ([2]; NAM, 50% PC): NS
- Crystallization upon dilution in water ([2]; NAM, 95% DMF): +
- Crystallization upon dilution in water ([2]; NAM, 95% DMSO): +
- Crystallization upon dilution in water ([2]; NAM, 95% EL): NS
- Crystallization upon dilution in water ([2]; NAM, 95% PC): NS
- Crystallization upon dilution in water ([2]; NFM, 0% DMF): −
- Crystallization upon dilution in water ([2]; NFM, 0% DMSO): −
- Crystallization upon dilution in water ([2]; NFM, 0% EL): −
- Crystallization upon dilution in water ([2]; NFM, 0% PC): −
- Crystallization upon dilution in water ([2]; NFM, 5% DMF): −
- Crystallization upon dilution in water ([2]; NFM, 5% DMSO): −
- Crystallization upon dilution in water ([2]; NFM, 5% EL): −
- Crystallization upon dilution in water ([2]; NFM, 5% PC): −
- Crystallization upon dilution in water ([2]; NFM, 10% DMF): −
- Crystallization upon dilution in water ([2]; NFM, 10% DMSO): +
- Crystallization upon dilution in water ([2]; NFM, 10% EL): NS
- Crystallization upon dilution in water ([2]; NFM, 10% PC): −
- Crystallization upon dilution in water ([2]; NFM, 15% DMF): +
- Crystallization upon dilution in water ([2]; NFM, 15% DMSO): +
- Crystallization upon dilution in water ([2]; NFM, 15% EL): NS
- Crystallization upon dilution in water ([2]; NFM, 15% PC): +
- Crystallization upon dilution in water ([2]; NFM, 20% DMF): +
- Crystallization upon dilution in water ([2]; NFM, 20% DMSO): +
- Crystallization upon dilution in water ([2]; NFM, 20% EL): NS
- Crystallization upon dilution in water ([2]; NFM, 20% PC): +
- Crystallization upon dilution in water ([2]; NFM, 25% DMF): +
- Crystallization upon dilution in water ([2]; NFM, 25% DMSO): +
- Crystallization upon dilution in water ([2]; NFM, 25% EL): NS
- Crystallization upon dilution in water ([2]; NFM, 25% PC): +
- Crystallization upon dilution in water ([2]; NFM, 30% DMF): +
- Crystallization upon dilution in water ([2]; NFM, 30% DMSO): +
- Crystallization upon dilution in water ([2]; NFM, 30% EL): NS
- Crystallization upon dilution in water ([2]; NFM, 30% PC): NS
- Crystallization upon dilution in water ([2]; NFM, 50% DMF): +
- Crystallization upon dilution in water ([2]; NFM, 50% DMSO): +
- Crystallization upon dilution in water ([2]; NFM, 50% EL): NS
- Crystallization upon dilution in water ([2]; NFM, 50% PC): NS
- Crystallization upon dilution in water ([2]; NFM, 95% DMF): +
- Crystallization upon dilution in water ([2]; NFM, 95% DMSO): +
- Crystallization upon dilution in water ([2]; NFM, 95% EL): NS
- Crystallization upon dilution in water ([2]; NFM, 95% PC): NS
- Crystallization upon dilution in water ([2]; NPM, 0% DMF): −
- Crystallization upon dilution in water ([2]; NPM, 0% DMSO): −
- Crystallization upon dilution in water ([2]; NPM, 0% PC): −
- Crystallization upon dilution in water ([2]; NPM, 5% DMF): NS
- Crystallization upon dilution in water ([2]; NPM, 5% DMSO): NS
- Crystallization upon dilution in water ([2]; NPM, 5% PC): NS
- Crystallization upon dilution in water ([2]; NPM, 10% DMF): NS
- Crystallization upon dilution in water ([2]; NPM, 10% DMSO): NS
- Crystallization upon dilution in water ([2]; NPM, 10% PC): NS
- Crystallization upon dilution in water ([2]; NPM, 15% DMF): NS
- Crystallization upon dilution in water ([2]; NPM, 15% DMSO): NS
- Crystallization upon dilution in water ([2]; NPM, 15% PC): NS
- Crystallization upon dilution in water ([2]; NPM, 20% DMF): NS
- Crystallization upon dilution in water ([2]; NPM, 20% DMSO): NS
- Crystallization upon dilution in water ([2]; NPM, 20% PC): NS
- Crystallization upon dilution in water ([2]; NPM, 25% DMF): NS
- Crystallization upon dilution in water ([2]; NPM, 25% DMSO): −
- Crystallization upon dilution in water ([2]; NPM, 25% PC): NS
- Crystallization upon dilution in water ([2]; NPM, 30% DMF): −
- Crystallization upon dilution in water ([2]; NPM, 30% DMSO): −
- Crystallization upon dilution in water ([2]; NPM, 30% PC): NS
- Crystallization upon dilution in water ([2]; NPM, 50% DMF): +
- Crystallization upon dilution in water ([2]; NPM, 50% DMSO): +
- Crystallization upon dilution in water ([2]; NPM, 50% PC): NS
- Crystallization upon dilution in water ([2]; NPM, 95% DMF): +
- Crystallization upon dilution in water ([2]; NPM, 95% DMSO): +
- Crystallization upon dilution in water ([2]; NPM, 95% EL): NS
- Crystallization upon dilution in water ([2]; NPM, 95% PC): NS
- Dissolution of active ingredient into Lactic acid dimethyl amide [3]: 14 grams of active ingredient in 100 g solvent
